From ChEMBL document CHEMBL6127012, “Discovery of DS-1093a: An oral hypoxia-inducible factor prolyl hydroxylase inhibitor for the treatment of renal anemia” (Bioorg Med Chem Lett, 2024) come the findings set out here.

A short description of data set [1]: cells. The settings on record: Homo sapiens, Hep3B.
Description: Induction of EPO production in human Hep3B cells
The test system of data set [2] is Cynomolgus monkey. In words: Anti-leukemia activity in cynomolgus monkey assessed as dose required to cause 10 fold increase in plasma EPO level.
Data set [3] in a line: Toxicity in rat assessed as increase in AST level […] at 10 mg/kg, po measured on day 4 (reference value: 71 IU/L). The data set is classed as organism-based. The settings on record: in vivo, 96 h, time 4 day.
Data set [4] is described as follows: Toxicity in rat assessed as increase in ALT level […] at 10 mg/kg, po measured on day 4 (reference value: 38 IU/L). The data set is classed as organism-based. The settings on record: in vivo, 96 h, time 4 day.
A short description of data set [5]: AUC (0 to 24 hrs) in rat at 10 mg/kg, po measured on day 4. Format: ADME, organism-based. The settings on record: in vivo, time 4 day.
Data set [6] can be described thus: Toxicity in rat assessed as increase in AST level […] at 100 mg/kg, po measured on day 4 (reference value: 71 IU/L). The following applies: in vivo, 96 h, time 4 day. Format: organism-based.
A short description of data set [7]: Toxicity in rat assessed as increase in ALT level […] at 100 mg/kg, po measured on day 4 (reference value: 38 IU/L). The data set is classed as organism-based. The settings on record: in vivo, 96 h, time 4 day.
Data set [8] can be described thus: AUC (0 to 24 hrs) in rat at 100 mg/kg, po measured on day 4. The settings on record: in vivo, time 4 day. Format: ADME, organism-based.
Data set [9] is described as follows: Partition coefficient, Kp of compound in rat liver to plasma. The following applies: liver and plasma. The data set is classed as ADME, cell-free.
Data set [10] addresses Egl nine homolog 1 (Homo sapiens, UniProt Q9GZT9).
Description: Inhibition of HIF-PHD2 (unknown origin)
The subject of data set [11] is Rattus norvegicus. In words: Hematopoietic effect on adenine-induced renal anemia po dosed rat model assessed as increase in hemoglobin level administered for 4 days and measured on day 5,7,9,11 and 14. The data set is classed as functional, organism-based. The settings on record: dose 0.3-3 mg/kg, time 4.0 day.
Data set [12] in a line: Lipophilicity, logD of the compound. The data set is classed as physicochemical. The settings on record: octanol/water.
The nature of data set [13]: Metabolic stability in rat plasma assessed as parent compound remaining. Format: ADME, cell-free.
Data set [14] can be described thus: Cmax in rat at 3 mg/kg, po measured on day 4. The settings on record: in vivo, time 4 day. The data set is classed as ADME, organism-based.
The nature of data set [15]: AUC in rat at 3 mg/kg, po measured on day 4. The settings on record: in vivo, time 4 day. Format: ADME, organism-based.
A short description of data set [16]: Half life in rat at 3 mg/kg, po measured on day 4. Format: ADME, organism-based. The following applies: in vivo, time 4 day.
A short description of data set [17]: Plasma protein binding in rat assessed as free fraction. Format: ADME, cell-free.
Data set [18] is described as follows: AUC (0 to 24 hrs) in rat at 0.54 mg/kg, po measured for 14 days. The data set is classed as ADME, organism-based. The settings on record: in vivo, time 14 day.
Data set [19] can be described thus: AUC (0 to 24 hrs) in rat at 10 mg/kg, po measured for 14 days. Format: ADME, organism-based. The settings on record: in vivo, time 14 day.
The nature of data set [20]: Toxicity in rat assessed as NOAEL at 10 mg/kg, po measured for 14 days. Format: organism-based. The following applies: in vivo, 336 h, time 14 day.

Some results are limits rather than exact numbers.

Chain of Egl nine homolog 1 (Q9GZT9 whole entry): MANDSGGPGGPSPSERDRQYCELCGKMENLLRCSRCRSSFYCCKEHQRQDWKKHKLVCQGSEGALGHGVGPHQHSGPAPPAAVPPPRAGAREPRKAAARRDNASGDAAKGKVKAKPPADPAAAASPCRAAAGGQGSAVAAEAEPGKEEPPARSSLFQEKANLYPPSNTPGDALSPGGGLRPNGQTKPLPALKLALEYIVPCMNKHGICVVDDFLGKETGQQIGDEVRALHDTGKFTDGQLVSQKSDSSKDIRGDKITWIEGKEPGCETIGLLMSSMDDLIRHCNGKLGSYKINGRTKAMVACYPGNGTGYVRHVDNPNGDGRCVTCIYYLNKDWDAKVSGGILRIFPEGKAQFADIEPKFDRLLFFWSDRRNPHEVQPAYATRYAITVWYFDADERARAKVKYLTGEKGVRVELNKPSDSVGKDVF

As for `Cc1nc(CC2CCN(c3ccc(Cc4ccc(CC(C)O)cc4)cc3)CC2)nc(C(=O)NCC(=O)O)c1O` (stereo not given), the EC50 (as a rule, the concentration giving half of the maximal effect) in [1] stood at 2.1 µM.
Take `Cc1nc(CC2CCN(c3ccc(-c4ccccc4)cc3)CC2)nc(C(=O)NCC(=O)O)c1O`: the EC10 in data set [2] came to 1.1 mg/kg. For the same compound, the EC50 in data set [1] was 0.42 µM.
In turn, `Cc1nc(CC2CCN(c3cccc(Cc4ccccc4)c3)CC2)nc(C(=O)NCC(=O)O)c1O` came in with an EC50 in [1] of 3.9 µM.
As to `Cc1nc(CC2CCN(c3ccc(C(F)(F)F)cc3)CC2)nc(C(=O)NCC(=O)O)c1O`, the EC50 in data set [1] worked out at 5.5 µM.
In data set [1], `CCc1nc(Cc2ccc(-c3ccccc3)cc2)nc(C(=O)NCC(=O)O)c1O` had an EC50 of 16 µM.
In the case of `Cc1nc(CC2CCCN(c3ccc(C(C)(C)C)cc3)CC2)nc(C(=O)NCC(=O)O)c1O` (stereo not given), the EC50 in data set [1] is 19 µM.
As to `Cc1nc(CCC2CCN(c3ccc(C(C)(C)C)cc3)CC2)nc(C(=O)NCC(=O)O)c1O`, in [1], the EC50 was determined as 13 µM.
The same measure, in the same setting: the figure for `CCCc1ccc(N2CCC(Cc3nc(C)c(O)c(C(=O)NCC(=O)O)n3)CC2)cc1` is 1.6 µM.
With `Cc1nc(CC2CCN(c3ccc(-c4ccc(C[C@@H](C)O)cc4)cc3)CC2)nc(C(=O)NCC(=O)O)c1O`, the EC10 in data set [2] stood at 2.4 mg/kg. In addition, the Activity is reported as 77 IU/L in data set [3], 40 IU/L in data set [4], 103 IU/L in [6] and 54 IU/L in [7]. For the same compound, the figures for the AUC at 96 h in [5] and in data set [8] were 15500 ng·h/mL and 197000 ng·h/mL, respectively. Moreover, the EC50 in data set [1] worked out at 0.44 µM.
In data set [1], `Cc1ccc(N2CCC(Cc3nc(C)c(O)c(C(=O)NCC(=O)O)n3)CC2)cc1` registered an EC50 of 10 µM.
In turn, `Cc1nc(CC2CCN(c3ccc(-c4ccc(CO)cc4)cc3)CC2)nc(C(=O)NCC(=O)O)c1O` gave an EC50 in [1] of 0.47 µM.
The compound `Cc1nc(CC2CCN(c3ccc(Cc4ccc(CO)cc4)cc3)CC2)nc(C(=O)NCC(=O)O)c1O` gave an EC50 in data set [1] of 2.7 µM.
Still for that read-out and setting: the figure for `Cc1nc(CC2CCN(c3ccc(C(C)(C)C)cc3)CC2)nc(C(=O)NCC(=O)O)c1O` is 1.5 µM; for `CSc1nc(CC2CCN(c3ccc(C(C)(C)C)cc3)CC2)nc(C(=O)NCC(=O)O)c1O` it is 3 µM.
Consider `Cc1nc(Cc2ccc(-c3ccc(C(C)(C)C)cc3)cn2)nc(C(=O)NCC(=O)O)c1O`, for which the EC50 in data set [1] stood at 1.9 µM.
In data set [1], `Cc1nc(CC2CCN(c3ccc(-c4ccc(C(=O)N(C)C)cc4)cc3)CC2)nc(C(=O)NCC(=O)O)c1O` came in with an EC50 of 0.84 µM.
`Cc1nc(Cc2cnc(-c3ccc(C(C)(C)C)cc3)nc2)nc(C(=O)NCC(=O)O)c1O` yielded an EC50 in [1] of 1.9 µM.
With `CCCCc1ccc(N2CCC(Cc3nc(C)c(O)c(C(=O)NCC(=O)O)n3)CC2)cc1`, a half-maximal effect in [1] (EC50) was put at 1.6 µM.
`Cc1nc(CC2CCN(c3ccc(Cc4ccc(C(=O)N(C)C)cc4)cc3)CC2)nc(C(=O)NCC(=O)O)c1O`: the EC50 in [1] came to 5.8 µM.
With `Cc1nc(CC2CCN(c3ccc(C(C)(C)C)cc3)C2)nc(C(=O)NCC(=O)O)c1O` (stereo not given), in data set [1], the EC50 stood at 27 µM.
With `Cc1nc(CCCC2CCN(c3ccc(C(C)(C)C)cc3)CC2)nc(C(=O)NCC(=O)O)c1O`, in [1], the midpoint of the response, the EC50, lay at 11 µM.
`Cc1nc(CC2CCN(c3ccc(Cc4ccccc4)cc3)CC2)nc(C(=O)NCC(=O)O)c1O`: the EC10 in data set [2] amounted to 0.5 mg/kg. The Kp (as a rule, tissue or fluid exposure divided by exposure in the circulation) in data set [9] amounted to 9.6. In [1], the response was half-maximal at 0.99 µM (EC50).
Regarding `Cc1nc(CCCCC2CCN(c3ccc(C(C)(C)C)cc3)CC2)nc(C(=O)NCC(=O)O)c1O`, in [1], the EC50 came to 11 µM.
`Cc1nc(Cc2ccc(-c3ccccc3)cc2)nc(C(=O)NCC(=O)O)c1C`: the IC50 (commonly the point on the concentration scale where inhibition reaches its midpoint) in data set [10] was greater than 100 µM.
With `Cc1nc(CC2CCN(c3ccc(-c4ccc(CC(C)O)cc4)cc3)CC2)nc(C(=O)NCC(=O)O)c1O` (racemic), the Kp in data set [9] was determined as 1.5. In data set [1], this compound showed an EC50 of 0.55 µM.
Consider `Cc1nc(CC2CCN(c3ccc(Cc4ccc(C(C)(C)CO)cc4)cc3)CC2)nc(C(=O)NCC(=O)O)c1O`, for which, in [1], the EC50 turned out to be 3.2 µM.
The same measure, in the same setting: the figure for `Cc1nc(CC2CCN(c3ccc(Cl)cc3)CC2)nc(C(=O)NCC(=O)O)c1O` is 6.9 µM; for `Cc1nc(Cc2cnc(-c3ccc(C(C)(C)C)cc3)s2)nc(C(=O)NCC(=O)O)c1O` it is 3.1 µM; for `Cc1nc(Cc2ccc(-c3ccc(C(C)(C)C)cc3)nc2)nc(C(=O)NCC(=O)O)c1O` it is 1 µM.
For the compound `Cc1nc(CC2CCN(c3cccc(C(C)(C)C)c3)CC2)nc(C(=O)NCC(=O)O)c1O`, a half-maximal response in data set [1] (EC50) required 6.3 µM.
With `Cc1nc(CC2CCN(c3ccc(-c4ccc(C[C@H](C)O)cc4)cc3)CC2)nc(C(=O)NCC(=O)O)c1O`, in data set [2], the EC10 was found to be 3.5 mg/kg. The Activity was 79 IU/L in data set [3]; 40 IU/L in data set [4]; 97 IU/L in [6]; 52 IU/L in [7]; “Dose-Dependent Effect” in data set [11]; “Non-Toxic” in [20]. Besides, the AUC (in general, concentration integrated over time) at 96 h in data set [5] was 16200 ng·h/mL; in [8], 162000 ng·h/mL; in data set [15], 4320 ng·h/mL. For the same compound, the logD (as a rule, the decadic logarithm of the distribution of all forms, ionised or not, between an organic phase and buffer at a given pH) in data set [12] is 1.2. In data set [13], the Stability was 79%. The concentration in data set [14] peaked (Cmax) at 860 ng/mL. The half-life – broadly, how long it takes for the measured level to halve – in data set [16] was 1 h. In data set [17], the Fu was 0.73%. Besides, the AUC at 336 h in data set [18] stood at 600 ng·h/mL; in [19], 88500 ng·h/mL. Besides, the EC50 in [1] stood at 0.49 µM.
In turn, `Cc1nc(CC2CCN(c3ccc(-c4ccc(C(C)(C)CO)cc4)cc3)CC2)nc(C(=O)NCC(=O)O)c1O` returned an EC50 in [1] of 0.84 µM.
Regarding `Cc1nc(Cc2ccc(-c3ccccc3)cc2)nc(C(=O)NCC(=O)O)c1O`, in [2], the EC10 was 2.2 mg/kg. The same compound had an EC50 in data set [1] of 8.4 µM.
Compound `Cc1nc(CC2CCN(c3ccc(F)cc3)CC2)nc(C(=O)NCC(=O)O)c1O` came in with an EC50 in data set [1] of 9.9 µM.
For `Cc1nc(Cc2ccc(-c3ccccc3)cc2)nc(C(=O)N[C@@H](C)C(=O)O)c1O`, in [1], the response was half-maximal at 14 µM (EC50).
In the case of `CC(C)(C)c1ccc(N2CCC(Cc3nc(C(=O)NCC(=O)O)c(O)c(C(F)F)n3)CC2)cc1`, the EC50 in data set [1] was found to be 19 µM.
